One experiment concerns Ps. cepacia 23. The experiment is described as follows: in vitro antibacterial activity, agar plate dilution method (MIC). It counts as cell-based, Pseudomonas cepacia. The following applies: read-out: Minimum Inhibitory Concentration (MIC). Summed up:
(§1)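 Agar dilution: MH agar + graded drug conc.; inoculum 10^6 CFU/ml (overnight MH broth culture, one loopful); 37° C., 16 h; MIC, μg/ml.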

For the next experiment, the system named is E. coli CSH2 (RK1). As to the kind of experiment: microbe, parasite or virus in culture. Type of experiment: cell-based. The following applies: Escherichia coli, 16 h, read-out: Minimum Inhibitory Concentration (MIC), *E. coli CSH2 (RK1), lactamase-producing strain; 10^6 CFU/ml. Summed up:
as §1

The test system of a further experiment is E. coli CSH(RE45). As to the kind of experiment: microbe, parasite or virus in culture. It counts as cell-based. The following applies: Escherichia coli, 16 h, read-out: Minimum Inhibitory Concentration (MIC), *E. coli CSH(RE45), lactamase-producing strain; 10^6 CFU/ml. Summed up:
as §1

The subject of a further experiment is A. calcoaceticus No. 4. As to the kind of experiment: in vitro antibacterial activity, agar plate dilution method (MIC). Type of experiment: cell-based, Acinetobacter calcoaceticus. The following applies: Acinetobacter calcoaceticus, NO.4, 16 h, 10^6 CFU/ml. Summed up:
as §1

The subject of a further experiment is Ps. aeruginosa IF03445. The description is as above. It counts as cell-based, Pseudomonas aeruginosa. The following applies: Pseudomonas aeruginosa, IF03445, 16 h, read-out: Minimum Inhibitory Concentration (MIC), Ps. aeruginosa IF03445; 10^6 CFU/ml. Summed up:
as §1

A further experiment relates to Ps. aeruginosa AKR17. The experiment is described as above. It counts as cell-based, Pseudomonas aeruginosa. The following applies: Pseudomonas aeruginosa, read-out: Minimum Inhibitory Concentration (MIC). Summed up: as §1
In another experiment the test system is Ps. aeruginosa AK 109. Described as above. Type of experiment: cell-based, Pseudomonas aeruginosa. The following applies: Pseudomonas aeruginosa, AK109, 16 h. Summed up: as §1
The subject of another experiment is K. pneumoniae PCI-602. The description is as above. It counts as cell-based. The following applies: Klebsiella pneumoniae, PCI602, 16 h, read-out: Minimum Inhibitory Concentration (MIC), K. pneumoniae PCI-602; 10^6 CFU/ml. Summed up:
as §1

In a further experiment the test system is M. morganii GN5407. The description is as above. It counts as cell-based. The following applies: Morganella morganii, GN5407, 16 h, read-out: Minimum Inhibitory Concentration (MIC), *M. morganii GN5407, lactamase-producing strain; 10^6 CFU/ml. Summed up: as §1
Another experiment relates to S. marcescens No. 16-2. Described as above. Type of experiment: cell-based. The following applies: Serratia marcescens, NO.162, 16 h, read-out: Minimum Inhibitory Concentration (MIC), *S. marcescens No. 16-2, lactamase-producing strain; 10^6 CFU/ml. Summed up: as §1
The test system of another experiment is K. oxytoca GN10650. Described as above. Type of experiment: cell-based. The following applies: Klebsiella oxytoca, GN10650, 16 h, read-out: Minimum Inhibitory Concentration (MIC), *K. oxytoca GN10650, lactamase-producing strain; 10^6 CFU/ml. Summed up:
as §1

The next experiment has as its system E. cloacae 963. Described as above. It counts as cell-based. The following applies: 10^6 CFU/ml. Summed up:
as §1

For another experiment, the system named is S. aureus 209P NIHJ-JC1. The experiment is described as above. Type of experiment: cell-based. The following applies: Staphylococcus aureus, 16 h. Summed up: as §1
In the next experiment the test system is P. vulgaris HX-19. The description is as above. The following applies: Proteus vulgaris, HX19, 16 h, read-out: Minimum Inhibitory Concentration (MIC). Type of experiment: cell-based. Summed up: as §1
The test system of the next experiment is E. cloacae Nek 39. The experiment is described as above. The following applies: Enterobacter cloacae, NEK39, 16 h, read-out: Minimum Inhibitory Concentration (MIC), *E. cloacae Nek 39, lactamase-producing strain; 10^6 CFU/ml. Type of experiment: cell-based. Summed up: as §1
The test system of the next experiment is S. marcescens IAM 1184. The description is as above. Type of experiment: cell-based. The following applies: Serratia marcescens, IAM1184, 16 h, read-out: Minimum Inhibitory Concentration (MIC). Summed up:
as §1

The test system of a further experiment is P. vulgaris No. 33. The experiment is described as above. The following applies: Proteus vulgaris, NO.33, 16 h, read-out: Minimum Inhibitory Concentration (MIC), *P. vulgaris No. 33, lactamase-producing strain; 10^6 CFU/ml. Type of experiment: cell-based. Summed up: as §1
The subject of a further experiment is E. coli NIHJ JC2. The description is as above. It counts as cell-based. The following applies: Escherichia coli, NIHJJC2, 16 h, read-out: Minimum Inhibitory Concentration (MIC), E. coli NIHJ JC2, 10^6 CFU/ml, 37° C. Summed up:
as §1

The next experiment deals with K. pneumoniae No. 42. The experiment is described as above. It counts as cell-based. The following applies: Klebsiella pneumoniae, NO.42, 16 h, read-out: Minimum Inhibitory Concentration (MIC), *K. pneumoniae No. 42, lactamase-producing strain; 10^6 CFU/ml. Summed up: as §1
For the next experiment, the system named is E. coli GN5482. The experiment is described as above. Type of experiment: cell-based. The following applies: Escherichia coli, GN5482, 16 h. Summed up:
as §1

Setting [1] is: Burkholderia cepacia, 16 h, Ps. cepacia 23, 10^6 CFU/ml.
The mark [2] stands for this setting: A. calcoaceticus No. 4, read-out: Minimum Inhibitory Concentration (MIC).
Setting [3] is: 16 h, Ps. aeruginosa AKR17, 10^6 CFU/ml.
The mark [4] stands for this setting: read-out: Minimum Inhibitory Concentration (MIC), Ps. aeruginosa AK 109, 10^6 CFU/ml.
[5] abbreviates: read-out: Minimum Inhibitory Concentration (MIC), S. aureus 209P NIHJ-JC1, 10^6 CFU/ml, 37° C., 16 hours.
Where [6] appears, read: S. marcescens IAM 1184, 10^6 CFU/ml.
Setting [7] is: read-out: Minimum Inhibitory Concentration (MIC).
Setting [8] is: Enterobacter cloacae, 963, 16 h, read-out: Minimum Inhibitory Concentration (MIC), E. cloacae 963.
The mark [9] stands for this setting: read-out: Minimum Inhibitory Concentration (MIC), *E. coli GN5482, lactamase-producing strain, 10^6 CFU/ml.

Read-outs that look alike come from different tables or passages of the source.

Take `C#CCON=C(C(=O)NC1C(=O)N2C(C(=O)O)=C(CSc3nc(C(=O)O)c(-c4ccc(O)c(O)c4)s3)CSC12)c1csc(N)n1` (stereo not drawn) [Ex. 56, disodium 78-[2-(2-aminothiazol-4-yl)-2-proparqyloxyiminoacetamido]-3-[4-carboxylate-5-(3,4-dihydroxyphenyl)thiazol-2-yl]thiomethyl-3-cephem-4-carboxylate]: the MIC was below 0.006 µg/mL in the experiment with Ps. cepacia 23 (setting [1]); 0.0125 µg/mL with E. coli CSH2 (RK1); 0.025 µg/mL in the experiment with E. coli CSH(RE45); 0.2 µg/mL in the experiment with A. calcoaceticus No. 4 (setting [2]); 3.12 µg/mL with Ps. aeruginosa IF03445; 100 µg/mL in the experiment on Ps. aeruginosa AKR17 (setting [3]). The MIC in the experiment with Ps. aeruginosa AK 109 (setting [4]) was 6.25 µg/mL; in the experiment with K. pneumoniae PCI-602 it was below 0.006 µg/mL; in the experiment with M. morganii GN5407, 0.05 µg/mL; in the experiment with S. marcescens No. 16-2, 6.25 µg/mL; with K. oxytoca GN10650 it was 12.5 µg/mL; with E. cloacae 963 (Enterobacter cloacae, 16 h, E. cloacae 963, read-out: Minimum Inhibitory Concentration (MIC)), 0.2 µg/mL. In addition, the MIC with S. aureus 209P NIHJ-JC1 (setting [5]) is 6.25 µg/mL; in the experiment with P. vulgaris HX-19 (P. vulgaris HX-19, 10^6 CFU/ml), below 0.006 µg/mL; in the experiment on E. cloacae Nek 39 it was 0.78 µg/mL; in the experiment with S. marcescens IAM 1184 (setting [6]), 0.05 µg/mL; with P. vulgaris No. 33, 0.05 µg/mL; in the experiment with E. coli NIHJ JC2, 0.78 µg/mL. Besides, the MIC with K. pneumoniae No. 42 is 0.1 µg/mL; with E. coli GN5482 (setting [7]), 3.12 µg/mL.
In the case of `CON=C(C(=O)NC1C(=O)N2C(C(=O)O)=C(CSc3ncc(-c4ccc(O)c(O)c4)o3)CSC12)c1csc(N)n1` (stereo not drawn) [Ex. 62, sodium 75-[2-(2-aminothiazol-4-yl)-2-methoxyiminoacetamido]-3-[5-(3,4-dihydroxyphenyl)-oxazol-2-yl]thiomethyl-3-cephem-4-carboxylate], the MIC in the experiment with Ps. cepacia 23 (setting [1]) is below 0.006 µg/mL; in the experiment with E. coli CSH2 (RK1), 0.025 µg/mL; with E. coli CSH(RE45), 0.05 µg/mL; with A. calcoaceticus No. 4 (setting [2]), 0.2 µg/mL; with Ps. aeruginosa IF03445, 1.56 µg/mL; in the experiment on Ps. aeruginosa AKR17 (setting [3]), above 100 µg/mL. Also, the MIC with Ps. aeruginosa AK 109 (setting [7]) was 3.12 µg/mL; in the experiment with K. pneumoniae PCI-602 it was below 0.006 µg/mL; in the experiment with M. morganii GN5407, 0.1 µg/mL; in the experiment with S. marcescens No. 16-2, 6.25 µg/mL; in the experiment on K. oxytoca GN10650 it was 3.12 µg/mL; with E. cloacae 963 (setting [8]), 0.05 µg/mL. Further, the MIC is 1.56 µg/mL in the experiment with S. aureus 209P NIHJ-JC1 (setting [5]); below 0.006 µg/mL in the experiment with P. vulgaris HX-19 (P. vulgaris HX-19, 10^6 CFU/ml); 0.78 µg/mL in the experiment on E. cloacae Nek 39; 0.025 µg/mL with S. marcescens IAM 1184 (setting [6]); 0.025 µg/mL in the experiment on P. vulgaris No. 33; 0.2 µg/mL in the experiment with E. coli NIHJ JC2. In addition, the MIC with K. pneumoniae No. 42 was found to be 0.025 µg/mL; in the experiment on E. coli GN5482 (setting [9]), 1.56 µg/mL.
On to `CCON=C(C(=O)N[C@@H]1C(=O)N2C(C(=O)[O-])=C(CSc3ncc(-c4ccc(O)c(O)c4)o3)CS[C@H]12)c1csc(N)n1.[Na+]` [Ex. 63, sodium 7β-[2-(2-aminothiazol-4-yl)-2-ethoxyiminoacetamido]-3-[5-(3,4-dihydroxyphenyl)-oxazol-2-yl]thiomethyl-3-cephem-4-carboxylate], for which the MIC in the experiment on Ps. cepacia 23 (Burkholderia cepacia, 23, 16 h) is 0.1 µg/mL; with E. coli CSH2 (RK1), 0.0125 µg/mL; in the experiment with E. coli CSH(RE45) it was 0.1 µg/mL; with A. calcoaceticus No. 4 (read-out: Minimum Inhibitory Concentration (MIC), A. calcoaceticus No. 4), 0.78 µg/mL; in the experiment with Ps. aeruginosa IF03445, 1.56 µg/mL; with Ps. aeruginosa AKR17 (AKR17, 16 h), 100 µg/mL. In addition, the MIC in the experiment on Ps. aeruginosa AK 109 (setting [4]) was 1.56 µg/mL; with K. pneumoniae PCI-602, below 0.006 µg/mL; in the experiment with M. morganii GN5407, 0.1 µg/mL; in the experiment with S. marcescens No. 16-2 it was 6.25 µg/mL; in the experiment with K. oxytoca GN10650, 3.12 µg/mL; in the experiment on E. cloacae 963 (setting [8]) it was 0.2 µg/mL. For the same molecule, the MIC in the experiment with S. aureus 209P NIHJ-JC1 (setting [7]) came out at 3.12 µg/mL; in the experiment on P. vulgaris HX-19 it was 0.0125 µg/mL; with E. cloacae Nek 39 it was 0.39 µg/mL; in the experiment with S. marcescens IAM 1184, 0.1 µg/mL; with P. vulgaris No. 33, 0.025 µg/mL; with E. coli NIHJ JC2, 0.39 µg/mL. In addition, the MIC was determined as 0.1 µg/mL in the experiment with K. pneumoniae No. 42 and 1.56 µg/mL with E. coli GN5482 (setting [9]).

These data come from US5061794A, “Cephalosporin derivatives, and antibacterial agents” (priority 1986, dated 1991).
